These are literature values, as cited in patent US20240278494A1, “THREE-DIMENSIONAL ADDITIVE FABRICATION WITH SUPPORT FLUID” (GEORGIA TECH RESEARCH CORPORATION, priority 2021, published 2024).

Like-named read-outs stand apart in the source and are kept apart here. Where only a bound is given, the exact number is not on record here.

The conditions of series [1]: for ρ: Table 2, resin additives; for Density: Table 1, acrylate monomers.
For series [2] the following is noted: Table 2, resin additives.
Experiment in series [3]: not given
This is another data set of the same source.

Take `OCCCO` [1,3-Propanediol]: the ρ in series [1] was 1.0597 g/mL. In addition, the “γ (surface tension)” value in series [2] is on record as 46.2 mN/m. Further, where the note is “Table 2, resin additives”, the Viscosity is 52 cP.
`C=CC(=O)OCCCC` [BA, Butyl Acrylate]: the ρ in series [1] is 0.9 g/mL. In series [2], the “γ (surface tension)” value is on record as 20 mN/m. The Viscosity (Table 2, resin additives) was 0.92 cP.
For `C1CCC2CCCCC2C1` (centres unmarked) [Decalin, Decahydronaphthalene], the ρ in series [1] is 0.896 g/mL. For the same compound, the Viscosity (Table 2, resin additives) was 1.788 cP.
As for `C=CC(=O)OCC(CC)CCCC` (centres unmarked) [EHA, 2-Ethylhexyl acrylate], the ρ in series [1] is reported as 0.885 g/mL. Moreover, the “γ (surface tension)” value in series [2] is on record as 26 mN/m. Besides, under “Table 2, resin additives”, the Viscosity is 1.7 cP.
For `C=CC(=O)OCCCCCCOC(=O)C=C` [HDDA, 1,6-Hexanediol diacrylate], the Density in series [1] is on record as 1.02 g/mL. Moreover, the Water solubility in series [3] (Table 1, acrylate monomers) is 100 µg/mL. Moreover, where the note is “Table 1, acrylate monomers”, the Viscosity is on record as 9 cP.
Regarding `C=CC(=O)OC` [MA, Methyl Acrylate], the ρ in series [1] was 0.95 g/mL. Further, the Water solubility in series [3] (Table 2, resin additives) was 50000 µg/mL. Further, the Viscosity (Table 2, resin additives) was 0.6 cP.
Turning to `C=C(C)C(=O)OC` [MMA, Methyl Methacrylate], the ρ in series [1] is reported as 0.94 g/mL. Besides, in series [2], the “γ (surface tension)” value was 31.4 mN/m. Moreover, the Viscosity (Table 2, resin additives) is given as 0.6 cP.
Regarding `CCCCCCCC/C=C\CCCCCCCC(=O)O` [OA, Oleic Acid], the ρ in series [1] is 0.895 g/mL. In addition, the Water solubility in series [3] (Table 2, resin additives) was less than 100 µg/mL. Besides, the “γ (surface tension)” value in series [2] was 31.92 mN/m. The Viscosity (Table 2, resin additives) is recorded as 27.64 cP.
For `COCC(C)OC(C)=O` (centres unmarked) [PGMEA, Propylene glycol methyl ether acetate], in series [1], the ρ is listed as 0.962 g/mL. In addition, the Water solubility in series [3] (Table 2, resin additives) was 19800 µg/mL. In addition, in series [2], the “γ (surface tension)” value is 26.9 mN/m. The Viscosity (Table 2, resin additives) is given as 0.8 cP.
Regarding `C=C(C)C(=O)OCCOCCOCCOC(=O)C(=C)C` [TEGDMA, Triethylene glycol dimethacrylate], the Density in series [1] is given as 1.072 g/mL. Besides, the Water solubility in series [3] (Table 1, acrylate monomers) was 2410 µg/mL. In addition, the Viscosity (Table 1, acrylate monomers) is 50 cP.
For the compound `CCCCOC(C)=O` [n-Butyl Acetate], the ρ in series [1] was 0.8825 g/mL. The Water solubility in series [3] (Table 2, resin additives) is 680 µg/mL. Moreover, the “γ (surface tension)” value in series [2] is 25.3 mN/m. For the same compound, the Viscosity (Table 2, resin additives) is reported as 1.1002 cP.
As for Dimethylbenzene [Xylene], in series [1], the ρ is given as 0.865 g/mL. Moreover, the Water solubility in series [3] (Table 2, resin additives) is less than 100 µg/mL. Besides, the “γ (surface tension)” value in series [2] is on record as 28 mN/m. Where the note is “Table 2, resin additives”, the Viscosity is on record as 0.812 cP.
For the compound Urethane dimethacrylate [UDMA], the Density in series [1] was 1.129 g/mL. Moreover, where the note is “Table 1, acrylate monomers”, the Viscosity was 6.75 cP.
